Assay results reported in US20070135453A1, “6-(2,4,6-Trihalophenyl)triazolopyrimidines, their preparation and their use for controlling harmful fungi, and compositions comprising these compounds” (BASF Aktiengesellschaft, priority 2003, published 2007).

Experiments:
[1] = system: Botrytis cinerea; experiment: Activity against gray mold on bell-pepper leaves caused by Botrytis cinerea, protective application; assay type: in vivo; settings: 250 ppm, protective spray, assessed after 5 days, untreated plants 100% infected
Description: (§1) The active compounds were prepared as a stock solution with 25 mg of active compound which was made up to 10 ml using a mixture of acetone and/or DMSO and the emulsifier Uniperol® EL (wetting agent having emulsifying and dispersing action based on ethoxylated alkylphenols) in a volume ratio of solvent/emulsifier of 99 to 1.
(§2) The mixture was then made up with water to 100 ml. This stock solution was diluted with the solvent/emulsifier/water mixture described to the concentration of active compounds stated below.
Use Example 2—Activity Against Gray Mold on Bell-Pepper Leaves Caused by Botrytis cinerea, Protective Application
Bell-pepper seedlings of the cultivar “Neusiedler Ideal Elite” were, after 2 to 3 leaves were well developed, sprayed to runoff point with an aqueous suspension having the concentration of active compounds stated below. The next day, the treated plants were inoculated with a spore suspension of Botrytis cinerea which contained 1.7×10^6 spores/ml in a 2% aqueous biomold solution. The test plants were then placed in a dark acclimatized chamber at 22 to 24° C. and high atmospheric humidity. After 5 days, the extent of the fungal infection on the leaves could be determined visually in %.

[2] = system: Pyrenophora teres; experiment: Activity against net blotch of barley caused by Pyrenophora teres, protective application; assay type: in vivo; settings: 250 ppm, protective spray, assessed after 6 days, untreated plants 90% infected
Description: as §1, §2
Use Example 1—Activity Against Net blotch of Barley Caused by Pyrenophora teres, Protective Application
Leaves of potted barley seedlings of the cultivar “Hanna” were sprayed to runoff point with an aqueous suspension having the concentration of active compounds stated below. 24 hours after the spray coating had dried on, the test plants were inoculated with an aqueous spore suspension of Pyrenophora [syn. Drechslera]teres, the net blotch pathogen. The test plants were then placed in a greenhouse at temperatures between 20 and 24° C. and 95 to 100% relative atmospheric humidity. After 6 days, the extent of the development of the disease was determined visually in % infection of the entire leaf area.

With `CC1CCN(c2c(-c3c(Cl)cc(Cl)cc3Cl)c(C#N)nc3ncnn23)CC1` [Example 1, 5-cyano-6-(2,4,6-trichlorophenyl)-7-(4-methylpiperidinyl)-1,2,4-triazolo[1,5a]pyrimidine] the “fungal infection on the leaves” value [1] was “about 7%” and the “infection of the entire leaf area” value [2] was “about 1%”.
